The subject of data set [1] is A549 human lung carcinoma cells. Nature of the data set: MTT cytotoxicity assay in A549 cells. It counts as cell-based. As to conditions: IC50 versus CPT. On the technique in general: Formazan colour is commonly taken as a measure of viable cells.

Where two headings read alike, the source gives them in different places.

`CC[C@@]1(OC(=O)CN)C(=O)OCc2c1cc1n(c2=O)Cc2cc3ccccc3nc2-1` [Prodrug 2a]: the “CPT reconversion rate (rank among prodrugs)” value (PB pH 6.6, 7.0 and 7.4) was “fastest”. Further, the “time for ester bond hydrolysis” value is no more than 96 h (PB pH 6.6, 37 °C); no more than 96 h (PB pH 7.0, 37 °C); no more than 72 h (PB pH 7.4, 37 °C). Also, the “fold less potent than parent drug (CPT)” value in data set [1] is reported as “about 2 fold”.
As to `CC[C@@]1(OC(=O)[C@@H](C)N)C(=O)OCc2c1cc1n(c2=O)Cc2cc3ccccc3nc2-1` [Prodrug 2b], the “time for ester bond hydrolysis” value is, setting by setting: (PB pH 6.6, 37 °C) 96 h; (PB pH 7.0, 37 °C) 96 h; (PB pH 7.4, 37 °C) no more than 72 h. Further, the “fold less potent than parent drug (CPT)” value in data set [1] was roughly 20 fold.
Take `CC[C@@H](N)C(=O)O[C@]1(CC)C(=O)OCc2c1cc1n(c2=O)Cc2cc3ccccc3nc2-1` [Prodrug 2c]: the “time for ester bond hydrolysis” value is, setting by setting: (PB pH 6.6, 37 °C) 120 h; (PB pH 7.0, 37 °C) ~ 120 h; (PB pH 7.4, 37 °C) no more than 96 h.
As for `CCC[C@@H](N)C(=O)O[C@]1(CC)C(=O)OCc2c1cc1n(c2=O)Cc2cc3ccccc3nc2-1` [Prodrug 2d], the “stability (rank among prodrugs)” value (PB pH 6.6, 7.0 and 7.4) is recorded as “most stable”. The “time for ester bond hydrolysis” value (PB pH 6.6, 37 °C) came out at 144 h; the “time for ester bond hydrolysis” value (PB pH 7.0, 37 °C) was no more than 120 h; the “time for ester bond hydrolysis” value (PB pH 7.4, 37 °C) was no more than 120 h.

The values are drawn from paper PMC3901077 (Journal of medicinal chemistry, 2010).
